Legend:
Assay type in all cases: ADME; call rule not given here
[1] = target: T1, UDP-glucuronosyltransferase 1A8 (Homo sapiens, UniProt Q9HAW9); assay: Drug metabolism assessed as human recombinant UGT1A8-mediated irilone-O-5-monoglucuronide formation at 25 uM incubated for 5 mins prior to UDPGA addition measured after 90 mins by HPLC-DAD analysis; conditions: recombinant enzyme, 1.5 h
T1 sequence (Q9HAW9 whole entry): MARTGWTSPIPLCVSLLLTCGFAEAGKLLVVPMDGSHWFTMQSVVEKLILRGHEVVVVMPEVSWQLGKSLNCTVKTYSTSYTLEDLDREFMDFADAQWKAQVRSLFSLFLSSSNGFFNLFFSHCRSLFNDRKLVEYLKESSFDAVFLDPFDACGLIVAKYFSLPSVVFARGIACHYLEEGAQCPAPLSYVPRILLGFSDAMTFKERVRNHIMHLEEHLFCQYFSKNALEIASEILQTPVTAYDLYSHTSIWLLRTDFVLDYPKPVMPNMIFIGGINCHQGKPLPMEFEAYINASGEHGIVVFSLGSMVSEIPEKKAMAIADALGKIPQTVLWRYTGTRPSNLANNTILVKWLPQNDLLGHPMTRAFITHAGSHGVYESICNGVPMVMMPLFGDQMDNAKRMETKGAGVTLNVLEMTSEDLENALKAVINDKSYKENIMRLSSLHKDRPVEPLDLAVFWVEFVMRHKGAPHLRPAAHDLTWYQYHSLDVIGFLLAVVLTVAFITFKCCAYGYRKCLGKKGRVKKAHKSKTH

[2] = target: T2, UDP-glucuronosyltransferase 1A10 (Homo sapiens, UniProt Q9HAW8); assay: Activity of human recombinant UGT1A10 assessed as intrinsic clearance incubated for 5 mins prior to UDPGA addition measured after 90 mins; conditions: recombinant enzyme, 1.5 h
T2 sequence (Q9HAW8 whole entry): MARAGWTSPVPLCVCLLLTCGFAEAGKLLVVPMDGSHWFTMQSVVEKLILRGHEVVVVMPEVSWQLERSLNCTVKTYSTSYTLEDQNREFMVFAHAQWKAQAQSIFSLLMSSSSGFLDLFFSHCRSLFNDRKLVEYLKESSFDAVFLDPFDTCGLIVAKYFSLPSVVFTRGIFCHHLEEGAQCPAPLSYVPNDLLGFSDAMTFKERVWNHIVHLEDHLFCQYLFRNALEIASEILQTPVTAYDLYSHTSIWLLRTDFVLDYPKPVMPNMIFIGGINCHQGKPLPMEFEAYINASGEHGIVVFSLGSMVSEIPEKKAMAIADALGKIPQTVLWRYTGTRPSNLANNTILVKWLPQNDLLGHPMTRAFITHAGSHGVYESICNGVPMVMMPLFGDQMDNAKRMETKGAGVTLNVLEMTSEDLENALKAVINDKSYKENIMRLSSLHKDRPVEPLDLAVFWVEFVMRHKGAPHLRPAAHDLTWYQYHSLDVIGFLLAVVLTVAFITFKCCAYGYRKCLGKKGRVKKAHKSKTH

Liver microsome [3] = assay: Drug metabolism in Sprague-Dawley rat liver microsomes assessed as IRI-O-5-monoglucuronide formation incubated for 5 mins prior to UDPGA addition measured after 90 mins by Eadie-Hoftsee plot analysis; conditions: 1.5 h
Liver microsome [4] = assay: Intrinsic clearance in Sprague-Dawley rat liver microsomes incubated for 5 mins prior to UDPGA addition measured after 90 mins; conditions: 1.5 h
[5] = target: T3, UDP-glucuronosyltransferase 1A9 (Homo sapiens, UniProt O60656); assay: Substrate inhibition of human recombinant UGT1A9 assessed as IRI-O-5-monoglucuronide formation incubated for 5 mins prior to UDPGA addition measured after 90 mins by Eadie-Hoftsee plot analysis
T3 sequence (O60656 whole entry): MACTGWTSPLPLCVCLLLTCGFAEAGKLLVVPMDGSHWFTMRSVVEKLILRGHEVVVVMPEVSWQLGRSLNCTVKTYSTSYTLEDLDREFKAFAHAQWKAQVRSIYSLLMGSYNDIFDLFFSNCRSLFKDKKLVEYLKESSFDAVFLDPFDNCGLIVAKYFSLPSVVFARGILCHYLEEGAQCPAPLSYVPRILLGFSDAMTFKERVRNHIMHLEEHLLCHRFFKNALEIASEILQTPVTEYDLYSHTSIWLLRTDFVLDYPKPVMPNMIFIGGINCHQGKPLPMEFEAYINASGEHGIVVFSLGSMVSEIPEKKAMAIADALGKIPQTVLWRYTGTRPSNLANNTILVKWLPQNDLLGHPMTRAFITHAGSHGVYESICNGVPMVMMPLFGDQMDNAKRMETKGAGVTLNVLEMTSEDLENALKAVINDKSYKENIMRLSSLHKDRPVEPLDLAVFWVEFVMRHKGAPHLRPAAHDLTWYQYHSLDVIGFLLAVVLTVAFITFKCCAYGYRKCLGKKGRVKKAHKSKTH

[6] = target: T4, UDP-glucuronosyltransferase 1A1 (Homo sapiens, UniProt P22309); assay: Drug metabolism assessed as human recombinant UGT1A1-mediated irilone-O-4'-monoglucuronide formation at 25 uM incubated for 5 mins prior to UDPGA addition measured after 90 mins by HPLC-DAD analysis; conditions: recombinant enzyme, 1.5 h
T4 sequence (P22309 whole entry): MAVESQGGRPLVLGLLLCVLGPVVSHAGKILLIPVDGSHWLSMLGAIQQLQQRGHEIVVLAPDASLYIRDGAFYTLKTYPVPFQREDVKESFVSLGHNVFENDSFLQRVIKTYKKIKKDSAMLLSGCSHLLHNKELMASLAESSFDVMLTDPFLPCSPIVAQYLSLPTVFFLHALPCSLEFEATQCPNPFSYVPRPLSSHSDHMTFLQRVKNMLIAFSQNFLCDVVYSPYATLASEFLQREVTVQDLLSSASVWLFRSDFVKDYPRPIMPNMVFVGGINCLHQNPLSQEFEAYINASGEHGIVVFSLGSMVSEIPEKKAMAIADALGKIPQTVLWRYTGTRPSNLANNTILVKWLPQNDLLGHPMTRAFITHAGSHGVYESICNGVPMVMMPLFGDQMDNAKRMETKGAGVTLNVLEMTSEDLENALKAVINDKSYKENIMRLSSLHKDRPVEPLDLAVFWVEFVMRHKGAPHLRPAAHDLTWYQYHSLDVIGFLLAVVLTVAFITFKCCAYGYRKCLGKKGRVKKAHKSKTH

[7] = target: T2, UDP-glucuronosyltransferase 1A10; assay: Substrate inhibition of human recombinant UGT1A10 assessed as IRI-O-5-monoglucuronide formation incubated for 5 mins prior to UDPGA addition measured after 90 mins by Eadie-Hoftsee plot analysis
Liver microsome [8] = assay: Drug metabolism in Sprague-Dawley rat liver microsomes assessed as IRI-O-4'-monoglucuronide formation incubated for 5 mins prior to UDPGA addition measured after 90 mins by Eadie-Hoftsee plot analysis; conditions: 1.5 h
[9] = target: T1, UDP-glucuronosyltransferase 1A8; assay: Substrate inhibition of human recombinant UGT1A8 assessed as IRI-O-5-monoglucuronide formation incubated for 5 mins prior to UDPGA addition measured after 90 mins by Eadie-Hoftsee plot analysis

Drug metabolism [1]: metabolite_detected
CL [2]: 99900 µL/min/mg
Km (Liver microsome [3]): 34 µM
Vmax (Liver microsome [3]): 1.37 nmol/mg/min
CLH (Liver microsome [4]): 51000 µL/min/mg
Ki [5]: 534 µM
Drug metabolism [6]: metabolite_detected
Ki [7]: Not Active
Km (Liver microsome [8]): 124 µM
Vmax (Liver microsome [8]): 1.33 nmol/mg/min
Ki [9]: 22.6 µM
SMILES: O=c1c(-c2ccc(O)cc2)coc2cc3c(c(O)c12)OCO3
